Measurements published in patent publication US20250161238A1, “NMDAR Antagonists Prevent Ageing and Aging-Associated Conditions and Diseases Through Increasing 20S Proteasome Activity” (priority 2022, published 2025).

Columns and labels:
p21-GFP fusion protein = p21-GFP fusion protein amount in cells; type: cell-based, human; details: Hep3B expressing p21-GFP
[1] = tested on: human mesenchymal stem cells; assay: MTT test of mesenchymal stem cells; type: cell-based; details: day 21
C. elegans [2] = assay: C. elegans movements (non-moving, swimming); type: in vivo; details: 18th day
Description: Therefore, the movements of the C. elegans grown at 20° C. on standard nematode growth medium(NGM) plates shaked at constant speed at 200 rpm were recorded for 5 minutes on the 18th day. All C. elegans in plate well were individually followed and counted by three different eyes for 5 minutes. […] One of the basic movement of C. elegans in liquid is crawling while the other is swimming. Previously described that swimming is more energetically demanding for C. elegans than the crawling motion. In addition it was stated that having the ability to swim is related to locomotory fatigue, muscle mitochondrial oxidation, a transcriptional oxidative stress response, and changes in carbohydrate and fat metabolism. It was also known that the swimming ability of C. elegans is also related to pharyngeal, intestinal, neuronal functions and strong muscle into old age.
(§1) To sterilize the animals 300 μL of a 6 mM Fluorodeoxyuridine (FUDR) stock solution was added to 10 ml medium. During the monitoring of their life span, the worms were kept by shaking at a constant speed of 200 rpm. Locomotor activities of the worms were recorded and available.

mice = assay: Weight test (forelimb grip) in aged mice; type: in vivo; details: mice at 22 months
Description: Another grip test that measures muscle strength more finely is forelimb grip strength test. Many biomarkers related to aging have been identified in human. Importantly, the grip tests performed on humans has been defined as a highly predicitive indicator that can show disabilities, diseases and deaths that may occur due to aging (Iconaru et al., 2018; Sousa-Santos and Amaral, 2017) In this test a mouse is held by the middle base of the tail and lower it to allow it to grasp the weight which is a ball of tangled fine gauge stainless steel wire. This test is carried out by increasing the weight, investigating the weight that the mouse can carry or keeping the weight constant and how long the mouse can carry the weight.
The experimental protocols were approved by the Ethics Committee of Ankara University, Faculty of Medicine, Medical Sciences Experimental Research and Application Center (Date: Dec. 11, 2019 and Decision number: 2019-22-189). Adult (12-mounts-old) C57BL/6 mice (5 for each group) were used. The mice were housed at the Experimental Animal Research Laboratory of Ankara University Faculty of Medicine. […] Tests related to locomotor activities of the mice were recorded and available.
Weight test use to measure muscle strength (Deacon, 2013). […] The experiment was recorded by camera for a maximum of 5 minutes. Total griping time was evaluated.

melanin and lipofuscin = assay: Melanin and lipofuscin staining of mouse tissues; type: in vivo; details: mice at 22 months
Description: Whole frozen tissues were sectioned with a microtome and fixed in 4% paraformaldehyde, Tissues were washed in PBS and the individual staining methods used in accordance with the manufacturer's recommendations. Total pixels from fluorescence in the images were quantified using Adobe Photoshop software CS2 (Adobe Systems), and normalized to a nuclear stain.

C. elegans [3] = assay: C. elegans life span in liquid medium; type: in vivo; details: for C. elegans survived compared to control: 20th day
Description: C. elegans is a free-living multicellular organism. Clear age-dependent human like physiological changes at the tissue, cellular, and molecular levels make C. elegans a valuable model for research in the field of aging and life span studies (Ambros, 2006). Accordingly, it was investigated how NMDAR blockers affact the life span of C. elegans. The use of drugs in the C. elegans related studies has been applied in different ways. The drugs were either applied to the LB medium with bacteria OP50, before spreading onto Nematode Growth Medium (NGM) plates (LB medium method), or to the NGM with live (NGM live method) or dead bacteria (NGM dead method), or spotting the drug solution to the surface of plates directly (spot dead method), or growing the worms in liquid medium (liquid growing method) (Ambros, 2006). Liquid growing method achieved the best absorption efficiency in worms. […] Therefore in this invention all the experiements related with the C. elegans were completed in liquid medium. In order to understand the effectiveness of the drug according to the onset time, the memantin was added to the medium on the 1st, 7th and 14th days in a 24-day period and the number of viable worms were determined on the 20nd day.
C. elegans strains used in this study were gift from Dr. Deniz Aksoy, Faculty of Sciency-Trakya University-Turkey. Preparation of liquid culture of C. elegans was prepared according to the Stiernagle, T. Maintenance of C. elegans (Feb. 11, 2006), WormBook, http://www.wormbook.org. Animals were grown on nematode growth medium (NGM) (50 mM NaCl, 2% agar, […], 5 mg/L cholesterol, 1.0 mM CaCl2), 1.0 mM MgSO4, 25 mM potassium phosphate, pH 6.0) seeded with Escherichia coli OP50 at 20° C. using standard methods.
For this purpose, the method described by Sulston, J. & Hodgkin, J. was followed. (See, Methods. in: Wood, W. B. (ed.) The Nematode Caenorhabditis elegans. (1988) Cold Spring Harbor Laboratory, Cold Spring Harbor: 587-606.; Solis, G. M., Petrascheck, M. Measuring Caenorhabditis elegans Life Span in 96 Well Microtiter Plates. 2011, J. Vis. Exp. (49)) Two-3 days old worms with eggs growing in NGM were transferred to 50 ml flask using S-medium. After centrifugation, worms were treated with 20% Alkaline Hypochlorite Solution and the eggs were transferred to the S-medium after washing with S-medium.
as §1

[4] = mice, 30 mg/kg dose; cited from earlier work
[5] = human subjects; cited from earlier work
hippocampal slices = details: 6-10 uM; cited from earlier work
[6] = tested on: human mesenchymal stem cells; assay: Lipid droplet amount in mesenchymal stem cells; type: cell-based; details: day 14
Description: Cell were harvested at day 14 for western blot and the protein expression amounts of the differentiation markers cd44, cd73, and cd90 were investigated. […] Another indicator of the stem cell differentiation is the determination of the amounts of lipid droplet in the cell. Fourteen-day cell passage is caused to increase lipid in the cell. It was observed that memantine treatment has prevented the amount of lipid droplet (FIG. 36D).

CNC1(c2ccccc2Cl)CCCCC1=O (centres unmarked) [ketamin, 2-(2-chlorophenyl)-2-(methylamino)-cyclohexanone]
p21-GFP fusion protein / GFP amount (p21-GFP fusion protein): decrease

CC12CC3CC(C)(C1)CC(N)(C3)C2 [memantine, 3,5-dimethyladamantan-1-amine]
lifespan of human mesenchymal stem cells (MTT test) [1]: increase the lifespan
number of C. elegans that can swim compared to without treatment (C. elegans [2]): 2,4 times
forelimb grip: time holding a fixed weight (mice): four times longer
amount of lipofuscin (liver) (melanin and lipofuscin): statistically decreased
amount of melanin (skin) (melanin and lipofuscin): statistically decreased
C. elegans survived compared to control (C. elegans [3]; memantin started on day 7 or day 1): ~3 times
C. elegans survived compared to control (C. elegans [3]; memantin started on the 14th day): 67%
worms survived compared to no-treatment (C. elegans [3]; day 21): 4 times
life span of C. elegans (C. elegans [3]; log-rank (Kaplan-Meier)): increase
tolerability [4]: well tolerated
CSF concentrations, lower [5]: 30-40%
LTP in hippocampal slices (hippocampal slices): do not attenuate
amount of lipid droplet [6]: prevented
